What was measured:
[1] = biological target: T1, ATM (Homo sapiens, UniProt Q13315); test: ATM inhibition test (phosphorylation of Chk2 generated by ionizing radiation, AlphaScreen SureFire); format: cell-based; settings: phosphorylated Chk2 in NCI-H460 cells, ionizing radiation 8Gy, 1 hour after test compound treatment; read-out: ATM inhibitory activity
T1 construct: detecting phosphorylation of Chk2 in a human non-small cell lung cancer cell line NCI-H460 (ATCC company); host or cells: NCI-H460 human non-small cell lung cancer cells
Summary of the method: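 Human NCI-H460 lung cancer cells were treated with compound for 1 h, then irradiated at 8Gy and incubated 1 h at 37° C. Phospho-Chk2 was quantified by AlphaScreen SureFire; inhibition % was normalised between irradiated untreated and non-irradiated untreated wells.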

[2] = system: human non-small cell lung cancer cell line NCI-H460; test: Cell proliferation inhibition test by sensitivity-enhancing to ionizing radiation (Cell Titer Glo); format: cell-based; settings: concentration in which SER became 2, NCI-H460 cells, ionizing radiation 2 Gy, cultured 120 hour
Procedure: A human non-small cell lung cancer cell line NCI-H460 (ATCC company) was adjusted so as to be 2×10^3 cells/mL in a RPMI-1640 medium containing penicillin/streptomycin and FBS having a final concentration of 10%, and this was seeded by 100 μL per well in 96-well CellBIND® plates (Corning International Inc.). After 24 hours, the medium of cells was replaced with 100 μL of a medium including serially diluted liquid of the test compound or DMSO having a final concentration of 0.1%. 30 minutes after the medium was replaced, half of the plates were irradiated with ionizing radiation 2 Gy (Faxitron Bioptics, LLC, RX-650 type). The cells of the plates irradiated with ionizing radiation and the plates not being irradiated with ionizing radiation were cultured at 37° C. for 120 hour in 5% CO2. After a Cell Titer Glo reaction liquid of an equal volume was added to each well, the amount of luminescence was measured, according to the instruction book of Cell Titer Glo (Promega Corporation). Since the amount of luminescence is proportional to the ATP concentration in cells, the amount of luminescence was used as an indicator of the number of viable cells. Sensitivity-enhancing effects (SER) to ionizing radiation by the test compound was calculated by the following equation. SER=(amount of luminescence of wells including DMSO having a final concentration of 0.1% in the plates irradiated with ionizing radiation×amount of luminescence of wells including a compound in the plates not being irradiated with ionizing radiation)/(amount of luminescence of wells including the test compound in the plates irradiated with ionizing radiation×amount of luminescence of wells including DMSO having a final concentration of 0.1% in the plates not being irradiated with ionizing radiation)
SER at each compound concentration was plotted by nonlinear regression fit (FitModel (205)) by a sigmoidal dose-response equation using XLfit software (IDBS), and the concentration (SER2) in which SER became 2 was calculated.

T1 sequence (Q13315 whole entry): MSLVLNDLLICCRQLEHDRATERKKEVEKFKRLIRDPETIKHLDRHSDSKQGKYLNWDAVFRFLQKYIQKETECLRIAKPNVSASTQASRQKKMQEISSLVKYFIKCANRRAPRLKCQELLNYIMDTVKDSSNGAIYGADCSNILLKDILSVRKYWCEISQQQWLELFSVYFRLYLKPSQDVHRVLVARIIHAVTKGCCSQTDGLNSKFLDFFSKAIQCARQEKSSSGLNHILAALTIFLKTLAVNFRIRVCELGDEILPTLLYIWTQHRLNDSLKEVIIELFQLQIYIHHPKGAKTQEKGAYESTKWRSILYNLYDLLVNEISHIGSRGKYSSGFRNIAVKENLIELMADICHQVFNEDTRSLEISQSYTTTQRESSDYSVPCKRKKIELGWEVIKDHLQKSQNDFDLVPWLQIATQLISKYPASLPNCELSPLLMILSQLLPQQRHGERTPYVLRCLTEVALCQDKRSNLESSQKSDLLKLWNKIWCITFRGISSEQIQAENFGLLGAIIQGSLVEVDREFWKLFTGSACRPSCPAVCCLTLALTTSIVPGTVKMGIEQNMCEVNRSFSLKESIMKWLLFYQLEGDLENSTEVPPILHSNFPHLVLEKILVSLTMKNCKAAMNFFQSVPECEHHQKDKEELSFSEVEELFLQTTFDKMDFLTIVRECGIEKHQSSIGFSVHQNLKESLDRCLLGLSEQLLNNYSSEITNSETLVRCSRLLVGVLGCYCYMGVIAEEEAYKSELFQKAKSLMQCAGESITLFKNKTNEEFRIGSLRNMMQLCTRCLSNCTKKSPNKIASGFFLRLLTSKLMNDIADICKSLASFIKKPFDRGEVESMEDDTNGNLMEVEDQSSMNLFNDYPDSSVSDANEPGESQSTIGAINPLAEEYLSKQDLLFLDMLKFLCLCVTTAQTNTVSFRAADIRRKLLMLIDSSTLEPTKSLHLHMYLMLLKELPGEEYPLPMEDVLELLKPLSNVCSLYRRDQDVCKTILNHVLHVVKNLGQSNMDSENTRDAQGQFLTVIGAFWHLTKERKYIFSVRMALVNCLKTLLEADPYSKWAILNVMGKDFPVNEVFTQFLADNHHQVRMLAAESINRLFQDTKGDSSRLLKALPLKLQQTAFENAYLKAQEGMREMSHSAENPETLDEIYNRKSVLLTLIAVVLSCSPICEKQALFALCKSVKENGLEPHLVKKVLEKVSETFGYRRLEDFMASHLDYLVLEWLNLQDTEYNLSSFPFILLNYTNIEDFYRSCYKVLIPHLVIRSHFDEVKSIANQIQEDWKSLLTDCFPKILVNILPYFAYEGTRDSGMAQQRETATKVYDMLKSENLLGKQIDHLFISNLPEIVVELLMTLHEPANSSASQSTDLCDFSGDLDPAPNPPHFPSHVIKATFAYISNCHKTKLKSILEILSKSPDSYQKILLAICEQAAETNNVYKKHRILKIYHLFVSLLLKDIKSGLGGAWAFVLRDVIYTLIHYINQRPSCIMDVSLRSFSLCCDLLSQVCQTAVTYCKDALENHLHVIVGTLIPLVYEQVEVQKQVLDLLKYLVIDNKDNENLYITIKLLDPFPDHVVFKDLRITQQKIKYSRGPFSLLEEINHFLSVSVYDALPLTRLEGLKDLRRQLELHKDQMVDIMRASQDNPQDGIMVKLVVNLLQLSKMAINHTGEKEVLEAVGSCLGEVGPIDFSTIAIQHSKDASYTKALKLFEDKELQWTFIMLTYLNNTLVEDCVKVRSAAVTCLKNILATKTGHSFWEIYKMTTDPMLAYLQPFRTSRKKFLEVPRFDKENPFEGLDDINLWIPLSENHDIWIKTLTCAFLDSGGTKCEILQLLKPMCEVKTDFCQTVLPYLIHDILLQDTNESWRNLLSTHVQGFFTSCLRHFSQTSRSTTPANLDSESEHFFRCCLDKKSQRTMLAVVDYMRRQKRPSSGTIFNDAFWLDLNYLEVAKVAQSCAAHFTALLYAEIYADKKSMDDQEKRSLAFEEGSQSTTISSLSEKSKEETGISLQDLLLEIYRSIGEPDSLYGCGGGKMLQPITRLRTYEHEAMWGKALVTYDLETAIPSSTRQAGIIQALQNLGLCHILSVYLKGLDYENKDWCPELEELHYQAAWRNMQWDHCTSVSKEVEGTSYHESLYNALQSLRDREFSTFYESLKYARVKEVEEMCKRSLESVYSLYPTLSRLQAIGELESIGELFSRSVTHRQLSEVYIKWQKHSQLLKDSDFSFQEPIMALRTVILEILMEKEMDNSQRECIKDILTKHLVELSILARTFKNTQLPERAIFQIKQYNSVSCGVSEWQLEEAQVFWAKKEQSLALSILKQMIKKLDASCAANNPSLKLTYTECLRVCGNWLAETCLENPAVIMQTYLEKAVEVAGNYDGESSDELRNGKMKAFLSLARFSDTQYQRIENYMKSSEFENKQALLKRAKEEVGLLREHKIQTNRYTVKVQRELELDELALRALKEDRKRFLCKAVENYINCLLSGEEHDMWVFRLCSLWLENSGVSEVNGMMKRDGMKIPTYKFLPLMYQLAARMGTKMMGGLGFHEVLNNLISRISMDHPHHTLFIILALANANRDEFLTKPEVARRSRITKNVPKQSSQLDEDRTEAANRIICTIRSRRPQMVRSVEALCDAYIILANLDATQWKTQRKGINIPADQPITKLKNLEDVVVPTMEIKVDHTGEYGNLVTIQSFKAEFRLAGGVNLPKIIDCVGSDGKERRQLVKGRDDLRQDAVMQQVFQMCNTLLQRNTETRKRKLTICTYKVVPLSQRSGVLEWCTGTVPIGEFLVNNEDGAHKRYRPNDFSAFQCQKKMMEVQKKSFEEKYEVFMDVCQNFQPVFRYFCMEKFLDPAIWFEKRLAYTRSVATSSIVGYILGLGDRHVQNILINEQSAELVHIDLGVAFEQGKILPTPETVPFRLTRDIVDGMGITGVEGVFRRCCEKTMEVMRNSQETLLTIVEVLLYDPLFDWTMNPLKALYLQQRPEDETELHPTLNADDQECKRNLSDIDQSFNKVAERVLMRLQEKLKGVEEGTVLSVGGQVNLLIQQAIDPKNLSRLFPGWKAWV

IC50 [1] [nM]	Structure (SMILES)	SER2 (concentration at which the radiation sensitivity-enhancement ratio reaches 2) ([2]; Homo sapiens, NCI-H460, 120 h) [nM]	SER2 (concentration at which the radiation sensitivity-enhancement ratio reaches 2) [2] [nM]
< 100	O=c1cc(N2CCOCC2)cc(-c2cccc3c2Sc2ccc(NCc4cccc(Cl)n4)cc2S3)[nH]1 [Example 1-12-6, 6-(7-(((6-Chloropyridin-2-yl)methyl)amino)thianthren-1-yl)-4-morpholino pyridin-2 (1H)-one]	100 to 500	
< 100	COC[C@H](CN1C[C@@H](C)O[C@@H](C)C1)Nc1ccc2c(c1)Sc1cccc(-c3cc(N4CCOCC4)cc(=O)[nH]3)c1S2 [Example 1-46-11, 6-(7-(((S)-1-((2S,6R)-2,6- Dimethylmorpholino)-3-methoxypropan-2-yl)amino)thianthren-1-yl)-4-morpholino pyridin-2(1H)-one]	< 100	
< 100	Cc1ccc(C(Nc2ccc3c(c2)Sc2cccc(-c4cc(N5CCOCC5)cc(=O)[nH]4)c2S3)C2CC(N(C)C)C2)nc1 (single isomer, unassigned) [Example 1-50-9, 6-(7-(((3-(Dimethylamino)cyclobutyl)(5-methylpyridin-2-yl)methyl)amino)thianthren-1-yl)-4-morpholino pyridin-2 (1H)-one]		< 100
< 100	CCCN1CCC(Nc2ccc3c(c2)Cc2cccc(-c4cc(N5CCOCC5)cc(=O)[nH]4)c2O3)CC1 [Example 2-28-32, 4-Morpholino-6-(7-((1-propylpiperidin-4-yl)amino)-9H-xanthen-4-yl) pyridin-2(1H)-one]	500 to 2000	
< 100	Cc1ccc(C(CCCN(C)C)Nc2ccc3c(c2)Sc2cccc(-c4cc(N5CCOCC5)cc(=O)[nH]4)c2S3)nc1 (centres unmarked) [Example 1-50-7, 6-(7-((4-(Dimethylamino)-1-(5-methylpyridin-2-yl)butyl)amino)thianthren-1-yl)-4-morpholino pyridin-2(1H)-one]	100 to 500	
< 100	Cc1cccc(C(C)Nc2ccc3c(c2)Sc2cccc(-c4cc(N5CCOCC5)cc(=O)[nH]4)c2S3)n1 (single isomer, unassigned) [Example 1-12-136-2, 6-(7-((1-(6-methylpyridin-2-yl)ethyl)amino)thianthren-1-yl)-4-morpholinopyridin-2(1H)-one]		100 to 500
< 100	Cc1ccnc(C(C)Nc2ccc3c(c2)Sc2cccc(-c4cc(N5CCOCC5)cc(=O)[nH]4)c2S3)n1 (centres unmarked) [Example 1-12-69, 6-(7-((1-(4-Methylpyrimidin-2-yl)ethyl)amino)thianthren-1-yl)-4-morpholino pyridin-2(1H)-one]	< 100	
< 100	Cc1cccc(C(CCN(C)C)Nc2ccc3c(c2)Sc2cccc(-c4cc(N5CCOCC5)cc(=O)[nH]4)c2S3)n1 (single isomer, unassigned) [Example 1-22-11-2, 6-(7-((3-(dimethylamino)-1-(6-methylpyridin-2-yl)propyl)amino)thianthren-1-yl)-4-morpholinopyridin-2(1H)-one]		< 100
< 100	CC(Nc1ccc2c(c1)Cc1cccc(-c3cc(N4CCOCC4)cc(=O)[nH]3)c1O2)c1nccc(CF)n1 (centres unmarked) [Example 2-14-61, 6-(7-((1-(4-(Fluoromethyl)pyrimidin-2-yl)ethyl)amino)-9H-xanthen-4-yl)-4-morpholino pyridin-2(1H)-one]	< 100	
< 100	COc1cc(OC)nc(CNc2ccc3c(c2)Cc2cccc(-c4cc(N5CCOCC5)cc(=O)[nH]4)c2O3)n1 [Example 2-2-51, 6-(7-(((4,6-Dimethoxypyrimidin-2-yl)methyl)amino)-9H-xanthen-4-yl)-4-morpholino pyridin-2 (1H)-one]	500 to 2000	
< 100	CN(C)c1cnc(CNc2ccc3c(c2)Sc2cccc(-c4cc(N5CCOCC5)cc(=O)[nH]4)c2O3)cn1 [Example 4-4-17, 6-(8-(((5-(Dimethylamino)pyrazin-2-yl)methyl)amino)phenoxathiin-4-yl)-4-morpholino pyridin-2(1H)-one]	100 to 500	
< 100	Cc1ccc(C(C)Nc2ccc3c(c2)Sc2cccc(-c4cc(N5CCOCC5)cc(=O)[nH]4)c2S3)nc1 (single isomer, unassigned) [Example 1-12-143-1, 6-(7-((1-(5-methylpyridin-2-yl)ethyl)amino)thianthren-1-yl)-4-morpholinopyridin-2(1H)-one]	< 100	
< 100	Cc1ccc(C(Nc2ccc3c(c2)Sc2cccc(-c4cc(N5CCOCC5)cc(=O)[nH]4)c2S3)C2CN(C)CCO2)nc1 (single isomer, unassigned) [Example 1-52-2, 6-(7-(((4-methylmorpholin-2-yl)(5-methylpyridin-2-yl)methyl)amino)thianthren-1-yl)-4-morpholinopyridin-2(1H)-one]		< 100
< 100	CCOc1cncc(CNc2ccc3c(c2)Cc2cccc(-c4cc(N5CCOCC5)cc(=O)[nH]4)c2O3)c1 [Example 2-2-48, 6-(7-(((5-Ethoxypyridin-3-yl)methyl)amino)-9H-xanthen-4-yl)-4-morpholino pyridin-2(1H)-one]	500 to 2000	
< 100	Cc1ccnc(C(CF)Nc2ccc3c(c2)Sc2cccc(-c4cc(N5CCOCC5)cc(=O)[nH]4)c2S3)n1 (centres unmarked) [Example 1-12-89, 6-(7-((2-Fluoro-1-(4-methylpyrimidin-2-yl)ethyl)amino)thianthren-1-yl)-4-morpholino pyridin-2(1H)-one]	100 to 500	
< 100	Cc1cnc(C(C)Nc2ccc3c(c2)Sc2cccc(-c4cc(N5CCOCC5)cc(=O)[nH]4)c2S3)nc1 (centres unmarked) [Example 1-12-70, 6-(7-((1-(5-Methylpyrimidin-2-yl)ethyl)amino)thianthren-1-yl)-4-morpholino pyridin-2(1H)-one]	< 100	
< 100	CC(Nc1ccc2c(c1)Sc1cccc(-c3cc(N4CCOCC4)cc(=O)[nH]3)c1S2)c1cnccn1 (centres unmarked) [Example 1-12-63, 4-Morpholino-6-(7-((1-(pyrazin-2-yl)ethyl)amino)thianthren-1-yl)pyridin-2 (1H)-one]	100 to 500	
< 100	COCCOCC(Nc1ccc2c(c1)Sc1cccc(-c3cc(N4CCOCC4)cc(=O)[nH]3)c1S2)c1nccc(C)n1 (centres unmarked) [Example 1-12-97, 6-(7-((2-(2-Methoxyethoxy)-1-(4-methylpyrimidin-2-yl)ethyl)amino)thianthren-1-yl)-4-morpholino pyridin-2(1H)-one]	100 to 500	
< 100	Cc1cnc(CNc2ccc3c(c2)Sc2cccc(-c4cc(N5CCOCC5)cc(=O)[nH]4)c2S3)cn1 [Example 1-12-62, 6-(7-(((5-Methylpyrazin-2-yl)methyl)amino)thianthren-1-yl)-4-morpholino pyridin-2 (1H)-one]	100 to 500	
< 100	Cc1cccc(C(C)Nc2ccc3c(c2)Sc2cccc(-c4cc(N5CCOCC5)cc(=O)[nH]4)c2S3)n1 (single isomer, unassigned) [Example 1-12-136-1, 6-(7-((1-(6-methylpyridin-2-yl)ethyl)amino)thianthren-1-yl)-4-morpholinopyridin-2(1H)-one]	< 100	
< 100	O=c1cc(N2CCOCC2)cc(-c2cccc3c2Oc2ccc(NCc4cc(-n5cccc5)ccn4)cc2C3)[nH]1 [Example 2-2-71, 6-(7-(((4-(1H-Pyrrol-1-yl)pyridin-2-yl)methyl)amino)-9H-xanthen-4-yl)-4-morpholino pyridin-2(1H)-one]	100 to 500	
< 100	N#Cc1ccnc(CNc2ccc3c(c2)Sc2cccc(-c4cc(N5CCOCC5)cc(=O)[nH]4)c2O3)c1 [Example 4-4-28, 2-(((6-(4-Morpholino-6-oxo-1,6-dihydropyridin-2-yl)phenoxathiin-2-yl)amino)methyl) isonicotinonitrile]	100 to 500	

From US9586951B2 (FUJIFILM Corporation, priority 2013, dated 2017)
